From publication PMC12339163, “Combining Plant Bioactives With Antibiotics for Enhanced Antibiofilm Activity Against Uropathogenic Staphylococcus spp. and Cytotoxicity Evaluation” (Advances in Pharmacological and Pharmaceutical Sciences, 2025)
Read-outs that look alike come from different tables or passages of the source.

Test system: planktonic cells of Staphylococcus spp.
Experiment: Checkerboard combination assay, planktonic cells, synergistic combinations (Table 3)
Format: cell-based
Settings: mean
Description: The checkerboard assay, as previously described, was used for the determination of the fractional inhibitory concentration index (FICI). Briefly, 50 µL of MHB was distributed into each well of a 96-well microplate. ATBs were serially diluted along the abscissa, and NPs were serially diluted along the ordinate. Then, 100 µL of bacterial inoculum (1.5 × 10^6 CFU/mL) was added to each well and incubated at 37°C for 24 h. The final concentration ranged from 0.125 to 128 µg/mL for ATBs and 4–512 µg/mL for NPs. After incubation, a volume of 40 µL of INT solution (0.2 mg/mL) was added to each well, and the microplate was incubated at 37°C for 30 min. The wells containing bacterial inoculum and MHB were used as a positive control, while wells containing only MHB + 1% glucose were used as a negative control and used as a blank. Viable bacteria cells change the yellow dye of INT to a pink color. The MICs were considered to be the lowest NP concentrations that prevented the color change medium. Subsequently, the FICI was calculated according to the formula FICI = (MIC of the ATBs in combination/MIC of the ATBs alone) + (MIC of a natural substance in combination/MIC of the natural substance alone). FICI values were interpreted as follows: synergy when FICI ≤ 0.5; additive when 0.5 < FICI ≤ 1; indifference when 1 < FICI ≤ 4; and antagonism when FICI > 4.

Row | MIC (24 h, read-out: MIC alone, NPs) | MIC (read-out: MIC alone, ATB) | SMILES
1 | 427 µg/mL |  | Cc1ccc(C(C)C)c(O)c1 [Thymol, thymol]
2 | 512 µg/mL |  | O=C(O)c1cc(O)c(O)c(O)c1 [Gallic acid, 3,4,5-trihydroxybenzoic acid]
3 |  | 1.16 µg/mL | NCC[C@H](O)C(=O)N[C@@H]1C[C@H](N)[C@@H](O[C@H]2O[C@H](CN)[C@@H](O)[C@H](O)[C@H]2O)[C@H](O)[C@H]1O[C@H]1O[C@H](CO)[C@@H](O)[C@H](N)[C@H]1O [Amikacin, amikacin]
4 |  | 7 µg/mL | C[C@H]1c2cccc(O)c2C(=O)C2=C(O)[C@]3(O)C(=O)C(C(N)=O)=C(O)[C@@H](N(C)C)[C@@H]3[C@@H](O)[C@@H]21 [Doxycycline, doxycycline]
5 | 384 µg/mL |  | COc1cc(/C=C/C(=O)CC(=O)/C=C/c2ccc(O)c(OC)c2)ccc1O [Curcumin, curcumin]
